# Results published in publication PMC9737838, “Long-Distance Protonation-Conformation Coupling in Phytochrome Species” (Molecules, 2022).
# Molecular target: T1, Agp1-PGP (photosensory module PAS-GAF-PHY of Agp1) (Agrobacterium fabrum, UniProt Q7CY45)
# T1 construct: gene Atu1990; photosensory module PAS-GAF-PHY, residues 1-504, C-terminal His6 tag; apoprotein from E. coli assembled with biliverdin; plasmids with and without deletion of the first 9 residues used for mutagenesis
# T1 sequence (Q7CY45 1-495): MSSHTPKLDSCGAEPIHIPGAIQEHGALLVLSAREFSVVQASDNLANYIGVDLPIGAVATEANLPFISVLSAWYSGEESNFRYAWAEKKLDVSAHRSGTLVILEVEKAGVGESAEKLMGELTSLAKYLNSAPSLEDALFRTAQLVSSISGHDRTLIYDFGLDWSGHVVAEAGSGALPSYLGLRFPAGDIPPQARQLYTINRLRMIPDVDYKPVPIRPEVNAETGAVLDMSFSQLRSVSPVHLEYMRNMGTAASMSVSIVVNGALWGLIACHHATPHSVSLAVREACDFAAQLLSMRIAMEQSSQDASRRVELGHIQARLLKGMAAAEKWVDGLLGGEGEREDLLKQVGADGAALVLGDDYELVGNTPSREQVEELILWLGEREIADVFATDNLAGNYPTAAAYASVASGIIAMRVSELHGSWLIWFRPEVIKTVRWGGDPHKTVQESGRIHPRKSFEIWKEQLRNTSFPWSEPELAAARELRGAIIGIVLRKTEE
# Assay: UV-Vis absorption of the assembled holoprotein, pH titration
# Format: binding
# Details: covalent, Cys20; Pr state, 702 nm band, 300 mM NaCl, 50 mM Tris, 20 °C
smiles,measurement,value
"C=CC1=C(C)/C(=C/C2=NC(=C\c3[nH]c(/C=C4\NC(=O)C(C)=C4C=C)c(C)c3CCC(=O)O)/C(CCC(=O)O)=C2C)NC1=O [BV, biliverdin]","UV-Vis absorption of the assembled holoprotein, pH titration",The apoprotein was expressed and assembled with BV according to established protocols
